Laboratory results taken from patent publication US20260226031A1, “NOVEL COMPOUNDS” (NRG THERAPEUTICS LTD., priority 2023, published 2026).

Legend:
mPTP [1] = assay: mPTP activity (Ca2+ retention) assay in isolated rat brain mitochondria; assay type: biochemical; conditions: isolated rat brain mitochondria; Fluo5N fluorescence at 10 min after Ca2+ (75 μM) bolus
Procedure, shortened: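 Mitochondria freshly isolated from brains of perfused female Sprague Dawley rats, digitonin-treated, in pH 7.4 mannitol/MOPS/KCl buffer with pyruvate, malate, ADP and oligomycin A. Incubated with compound 10 min at RT with 2 μM Fluo5N. Fluorescence then read every 3 s for 10 min.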

mPTP [2] = assay: mPTP activity (Ca2+ retention) assay in isolated rat liver mitochondria; assay type: biochemical; conditions: isolated rat liver mitochondria; Fluo5N fluorescence at 10 min after CaCl2 (75 μM) bolus; DMSO 0%, 5 μM cyclosporin A 100% inhibition
Procedure, shortened: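 Freshly isolated female Sprague Dawley rat liver mitochondria with succinate, rotenone and Fluo5N were preincubated 10 min at RT with compounds (final 30 μM to 1 nM), then challenged with CaCl2. Fluorescence at 10 min gave % inhibition versus DMSO (0%) and 5 μM cyclosporin A (100%); pIC50 calculated.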

O=C(c1cncc(=O)[nH]1)N1CC(c2ccc(F)cc2F)C2(CCC2)C1 (single isomer, unassigned) [Example 37a, 6-(8-(2,4-difluorophenyl)-6-azaspiro[3.4]octane-6-carbonyl)pyrazin-2(1H)-one]
mPTP Rat brain pIC50 (mPTP [1]): 7.28 | mPTP Rat liver pIC50* (mPTP [2]): 5.99

O=C(c1cncc(=O)[nH]1)N1CC(c2cccc(Cl)c2)C2(CCC2)C1 (single isomer, unassigned) [Example 31b, 6-(8-(3-chlorophenyl)-6-azaspiro[3.4]octane-6-carbonyl)pyrazin-2(1H)-one]
mPTP Rat brain pIC50 (mPTP [1]): <4.52 | mPTP Rat liver pIC50* (mPTP [2]): 4.58

O=C(c1cncc(=O)[nH]1)N1CC(c2ccc(F)c(F)c2)C2(CCC2)C1 (single isomer, unassigned) [Example 45b, 6-(8-(3,4-difluorophenyl)-6-azaspiro[3.4]octane-6-carbonyl)pyrazin-2(1H)-one]
mPTP Rat brain pIC50 (mPTP [1]): 6.78 | mPTP Rat liver pIC50* (mPTP [2]): <4.52

COc1ccc(C2CN(C(=O)c3cncc(=O)[nH]3)CC23CCC3)cc1 (single isomer, unassigned) [Example 28a, 6-(8-(4-methoxyphenyl)-6-azaspiro[3.4]octane-6-carbonyl)pyrazin-2(1H)-one]
mPTP Rat brain pIC50 (mPTP [1]): 5.69 | mPTP Rat liver pIC50* (mPTP [2]): 5.17

O=C(c1cncc(=O)[nH]1)N1CC(c2ccc(Cl)cc2)C2(CCC2)C1 (single isomer, unassigned) [Example 16b, 6-[8-(4-Chlorophenyl)-6-azaspiro[3.4]octane-6-carbonyl]-1H-pyrazin-2-one]
mPTP Rat brain pIC50 (mPTP [1]): <4.52 | mPTP Rat liver pIC50* (mPTP [2]): <4.52

O=C(c1nccc(=O)[nH]1)N1CC(c2ccccc2)C2(CCC2)C1 (single isomer, unassigned) [Example 21b, 2-[8-phenyl-6-azaspiro[3.4]octane-6-carbonyl]-3H-pyrimidin-4-one]
mPTP Rat brain pIC50 (mPTP [1]): <4.52 | mPTP Rat liver pIC50* (mPTP [2]): <4.52

O=C(c1cncc(=O)[nH]1)N1CC(c2cc(Cl)ccc2F)C2(CCC2)C1 (single isomer, unassigned) [Example 32b]
mPTP Rat brain pIC50 (mPTP [1]): <4.52 | mPTP Rat liver pIC50* (mPTP [2]): <4.52

O=C(c1cc(O)no1)N1CC(c2cccc(F)c2)C2(CCC2)C1 (single isomer, unassigned) [Example 38b, (8-(3-fluorophenyl)-6-azaspiro[3.4]octan-6-yl)(3-hydroxyisoxazol-5-yl)methanone]
mPTP Rat brain pIC50 (mPTP [1]): <4.52 | mPTP Rat liver pIC50* (mPTP [2]): <4.52

O=C(c1cc(O)no1)N1CC(c2ccc(F)c(F)c2)C2(CCC2)C1 (single isomer, unassigned) [Example 46a, (8-(3,4-difluorophenyl)-6-azaspiro[3.4]octan-6-yl)(3-hydroxyisoxazol-5-yl)methanone]
mPTP Rat brain pIC50 (mPTP [1]): 7.44 | mPTP Rat liver pIC50* (mPTP [2]): 6.28
